Blank lines part the entries; values can stand above or below the compound they belong to.
Columns and labels:
ERα [1] = molecular target: T1, ERα (Homo sapiens, UniProt P03372); assay: 3XEREluc reporter assay with ERα specific ligand in Ishikawa cells; format: cell-based; conditions: PELP1-transfected Ishikawa cells treated with PPT; FIG. 7C
T1 sequence (P03372 1-595): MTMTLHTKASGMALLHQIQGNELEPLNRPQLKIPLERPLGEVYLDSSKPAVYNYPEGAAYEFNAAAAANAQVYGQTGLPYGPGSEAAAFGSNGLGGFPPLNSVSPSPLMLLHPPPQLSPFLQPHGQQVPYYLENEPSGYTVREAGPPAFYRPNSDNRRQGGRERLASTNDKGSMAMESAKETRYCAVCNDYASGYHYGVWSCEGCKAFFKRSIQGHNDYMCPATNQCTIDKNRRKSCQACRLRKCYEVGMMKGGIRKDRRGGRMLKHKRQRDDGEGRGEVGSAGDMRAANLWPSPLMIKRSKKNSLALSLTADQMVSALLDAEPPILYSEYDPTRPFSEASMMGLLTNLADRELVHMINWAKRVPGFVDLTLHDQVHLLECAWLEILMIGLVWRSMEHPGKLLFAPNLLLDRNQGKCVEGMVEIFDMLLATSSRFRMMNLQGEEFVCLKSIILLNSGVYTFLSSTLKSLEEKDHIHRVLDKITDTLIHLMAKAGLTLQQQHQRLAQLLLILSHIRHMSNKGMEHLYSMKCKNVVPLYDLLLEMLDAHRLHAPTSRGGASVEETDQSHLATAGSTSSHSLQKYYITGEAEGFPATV
Description: (§1) PELP1 is widely expressed in endometrial cancer cells including the widely used endometrial cell lines (Ishikawa and RL 95-2). Control MCF-7 (ERα-positive) and MDA-MB-231 (ERβ-positive) breast cancer cells were also analyzed. (FIG. 7A). […] PELP1 modulation of the transactivation functions of both ER subtypes was performed using ERα or ERβ specific ligands. […] PELP1 also promotes ERβ transcriptional activity in Ishikawa cells when cotransfected with PELP1 (FIG. 7F). Further, endogenous PELP1 effectively interacts with ERβ in Ishikawa cells in a ligand-dependent manner (FIG. 7G).

ERE luciferase reporter = ERE luciferase reporter assay in MCF-7, Ishikawa, HeLa and SaoS2 cells; conditions: E2 10^−9M, 24 hours
Ishikawa cells = assay: Tamoxifen-mediated agonist signaling, reporter gene and cell growth assays, Ishikawa cells; format: cell-based; conditions: Ishikawa cells co-transfected with ERE reporter gene; two days
Excerpt: (§2) Interference with PELP1 function blocks tamoxifen-mediated agonist activity in endometrial cell lines. Disruption of PELP1 functions was examined to assess interference with tamoxifen-mediated agonist signaling using reporter gene assays and cell growth assays performed in an endometrial cell line (Ishikawa) and a breast cancer cell line (MCF-7). Cancer cells were co-transfected with ERE reporter gene along with either (a) PELP1 cDNA, (b) PELP1 H1 […]), (c) PELP1 mutant cDNA lacking the nuclear localization signal (PELP-NLS mutant), or (d) PELP1-specific siRNA. Cells were stimulated with estrogen for two days and reporter gene activity and cell number were measured.

ERα [2] = molecular target: T1, ERα; assay: E2-mediated transactivation with PELP1 mutant lacking C-terminal histone-binding region; conditions: FIG. 9
ERE reporter gene = ERE reporter gene assay in Ishikawa cells with or without PELP1 H1 mutant; format: cell-based, human; conditions: Ishikawa cells transfected with ERE reporter gene, treated or not treated with estrogen; FIG. 1E
Excerpt: Ishikawa (human endometrial adenocarcinoma) cells were transfected with ERE reporter gene with or without the PELP1 H1 mutant. […]

MCF-7 cells = assay: Tamoxifen-mediated agonist signaling, reporter gene and cell growth assays, MCF-7 cells; format: cell-based; conditions: MCF-7 cells co-transfected with ERE reporter gene; two days
Excerpt: as §2

ER = ER transactivation assay (ERE-luciferase) in ER-positive Ishikawa cells; format: cell-based; conditions: coexpression of PELP1, compared to 6 fold in vector-transfected cells, FIG. 7B
Description: as §1

Compound: CCCc1c(-c2ccc(O)cc2)nn(-c2ccc(O)cc2)c1-c1ccc(O)cc1 [PPT]
increase of 3XEREluc reporter activity (ERα [1]): 9 times more than the vector-transfected control

ERα mediated transcription (ERα [2]): blocks ERα mediated transcription
Compound: PELP1 H1 mutant: C-terminal deleted PELP1 mutant (aa 1-877), stop codon after amino acid 877, lacks Histone H1 binding domain; SEQ ID NO:14
ERE luciferase reporter activity (ERE luciferase reporter; FIG. 2): effectively suppressed the estrogen mediated ER coactivation functions
ERE luciferase reporter activity (ERE luciferase reporter; FIG. 2, listed as Histone H1 mutant): substantially reduced the magnitude of the transcriptional activation by estrogen
tamoxifen-mediated agonist activity (Ishikawa cells): disrupted tamoxifen-mediated agonist activity
estrogen-mediated transcriptional activation (ERE reporter gene activity) (ERE reporter gene): blocking of estrogen-mediated transcriptional activation

Compound: wild-type PELP1: Proline, glutamic acid and leucine rich protein 1, full length, expressed from PELP1 cDNA; SEQ ID NO:1
tamoxifen-mediated agonist activity (Ishikawa cells): augmented tamoxifen-mediated agonist activity
tamoxifen-mediated agonist activity (MCF-7 cells): not in MCF-7 cells
increase of ERE-luciferase (luc) activity in ligand-stimulated cells (ER): 9 fold

Source: US20050095241A1, “Estrogen receptor modulators and uses thereof” (priority 2003, published 2005)
